From patent US7647217B2, “Structure of the farnesoid X receptor ligand binding domain and methods of use therefor” (The Salk Institute for Biological Studies, priority 2002, dated 2010)

Tests used:
Experiment in all cases: GAL4 chimeric NHR cross-reactivity assay
Format in all cases: cell-based
Conditions in all cases: 10 μM
hRARβ = biological target: T1, hRARβ (Homo sapiens, UniProt P10826)
T1 construct: expressed in transfected cells; host or cells: CV-1 (monkey)
T1 sequence (P10826 183-417 limits assumed): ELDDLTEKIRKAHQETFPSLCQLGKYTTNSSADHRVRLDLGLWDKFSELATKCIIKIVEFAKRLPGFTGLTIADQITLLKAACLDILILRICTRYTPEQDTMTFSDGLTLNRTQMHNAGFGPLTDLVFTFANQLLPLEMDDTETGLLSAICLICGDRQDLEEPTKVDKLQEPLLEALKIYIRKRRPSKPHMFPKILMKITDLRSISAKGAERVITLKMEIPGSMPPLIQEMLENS
Experimental: (§1) FIGS. 3A-3E collectively show the results of ligand activation of CV-1 cells co-transfected with a luciferase reporter gene with a variety of receptor expression constructs. […] FIGS. 3C-3E show the results of CV-1 cells transiently transfected with the indicated reporter constructs, treated with either DMSO or 10 μM of the compounds fexaramine (3C), fexarine (3D), fexarene (3E). Reporter activity was normalized to the internal control and the data plotted as fold activation relative to untreated cells. All transfections contained CMX-βgal as an internal control.
(§2) The expression plasmids pCMX, pCMX-LacZ, pCMX-mFXRFL, pCMX-hRXRFL, pCMX-GALDBD-rFXRLBD and other pCUX-GALDBD-NR LBDs (hRXRα, hPPARαγδ, mPXR, hPXR, hLXRα, HTRβ, hRARβ, mCAR, mERR3 and hVDR) have been described elsewhere (Blumberg et al. (1998). SXR, a novel steroid and xenobiotic-sensing nuclear receptor. Genes Dev. 12(20), 3195-205). The reporter plasmids pMH2004-TK-luc, pTKECRE*6-luc, pTKER-8*2-luc and pMRP-2-luc also have been described elsewhere. The hPLTP-luc promoter was kindly provided by Dr Dennis Dowhan and the hIBABP-luc promoter was created from a plasmid provided by Dr Philippe Besnard.
(§3) Cell-based transcriptional activation assays using chimeric nuclear hormone receptor (NHR) constructs were established to measure the selectivity of the compounds to FXR relative to other NHRs (Forman et al. (1995). Identification of a nuclear receptor that is activated by farnesol metabolites. Cell 81, 687-693). These assays used fusion proteins with the yeast GAL4 DNA binding domain connected to the ligand-binding domain (LBD) of NHRs. These constructs were co-transfected with a thymidine kinase C minimal promoter reporter vector containing four copies of the GAL4 binding site. Titration experiments were then performed using the identified compounds. […] Addition of RXR had no effect on the activation potential of fexaramine, fexarine, fexarene in this assay.
(§4) No activity was observed on other chimeric NHR constructs including hRXRα, hPPARαγδ, mPXR, hPXR, hLXRα, hTRβ, hRARβ, mCAR, mERR3 and hVDR (see FIGS. 3C-3E).

hRXRα = biological target: T2, hRXRα (Homo sapiens, UniProt P19793)
T2 construct: expressed in transfected cells; host or cells: CV-1 (monkey)
T2 sequence (P19793 227-458 limits assumed): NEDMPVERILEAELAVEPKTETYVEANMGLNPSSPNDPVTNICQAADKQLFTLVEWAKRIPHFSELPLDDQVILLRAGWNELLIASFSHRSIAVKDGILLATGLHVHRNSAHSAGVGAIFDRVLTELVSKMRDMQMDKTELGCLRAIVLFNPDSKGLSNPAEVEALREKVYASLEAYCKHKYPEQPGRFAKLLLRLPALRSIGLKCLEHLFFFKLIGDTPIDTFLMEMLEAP
Experimental: as §1, §2, §3, §4

hTRβ = biological target: T3, hTRβ (Homo sapiens, UniProt P10828)
T3 construct: expressed in transfected cells; host or cells: CV-1 (monkey)
T3 sequence (P10828 217-461 limits assumed): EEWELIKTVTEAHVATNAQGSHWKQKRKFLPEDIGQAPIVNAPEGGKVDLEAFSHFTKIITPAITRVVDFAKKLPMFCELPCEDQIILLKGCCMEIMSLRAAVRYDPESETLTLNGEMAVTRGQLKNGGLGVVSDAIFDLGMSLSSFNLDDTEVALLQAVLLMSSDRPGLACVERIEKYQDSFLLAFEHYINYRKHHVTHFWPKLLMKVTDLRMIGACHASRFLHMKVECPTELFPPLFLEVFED
Experimental: as §1, §2, §3, §4

hVDR = biological target: T4, hVDR (Homo sapiens, UniProt P11473)
T4 construct: expressed in transfected cells; host or cells: CV-1 (monkey)
T4 sequence (P11473 127-423 limits assumed): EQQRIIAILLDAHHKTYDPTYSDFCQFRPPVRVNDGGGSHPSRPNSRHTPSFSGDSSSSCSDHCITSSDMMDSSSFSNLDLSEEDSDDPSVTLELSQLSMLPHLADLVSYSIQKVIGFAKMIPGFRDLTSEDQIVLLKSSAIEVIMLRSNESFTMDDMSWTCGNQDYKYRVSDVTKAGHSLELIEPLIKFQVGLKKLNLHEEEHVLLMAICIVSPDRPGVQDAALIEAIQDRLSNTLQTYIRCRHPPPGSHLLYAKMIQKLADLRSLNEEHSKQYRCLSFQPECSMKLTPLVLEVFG
Experimental: as §1, §2, §3, §4

mCAR = biological target: T5, mCAR (Mus musculus, UniProt O35627)
T5 construct: expressed in transfected cells; host or cells: CV-1 (monkey)
T5 sequence (O35627 119-358 limits assumed): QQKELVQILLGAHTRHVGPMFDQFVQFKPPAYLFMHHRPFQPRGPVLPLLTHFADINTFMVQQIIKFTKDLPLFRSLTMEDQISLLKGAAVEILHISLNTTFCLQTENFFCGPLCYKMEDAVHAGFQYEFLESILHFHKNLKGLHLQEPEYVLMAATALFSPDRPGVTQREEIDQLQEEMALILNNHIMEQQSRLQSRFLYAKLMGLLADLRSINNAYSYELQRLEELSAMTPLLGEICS
Experimental: as §1, §2, §3, §4

mERR3 = biological target: T6, mERR3 (Mus musculus, UniProt P62509)
T6 construct: expressed in transfected cells; host or cells: CV-1 (monkey)
T6 sequence (P62509 233-457 limits assumed): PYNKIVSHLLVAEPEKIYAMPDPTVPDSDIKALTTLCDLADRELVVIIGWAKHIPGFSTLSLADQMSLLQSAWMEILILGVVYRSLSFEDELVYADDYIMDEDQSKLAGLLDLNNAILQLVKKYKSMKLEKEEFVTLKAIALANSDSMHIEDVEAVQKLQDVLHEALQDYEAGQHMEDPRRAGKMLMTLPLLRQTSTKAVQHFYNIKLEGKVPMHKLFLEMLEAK
Experimental: as §1, §2, §3, §4

mPXR = biological target: T7, mPXR (Mus musculus, UniProt O54915)
T7 construct: expressed in transfected cells; host or cells: CV-1 (monkey)
T7 sequence (O54915 143-430 limits assumed): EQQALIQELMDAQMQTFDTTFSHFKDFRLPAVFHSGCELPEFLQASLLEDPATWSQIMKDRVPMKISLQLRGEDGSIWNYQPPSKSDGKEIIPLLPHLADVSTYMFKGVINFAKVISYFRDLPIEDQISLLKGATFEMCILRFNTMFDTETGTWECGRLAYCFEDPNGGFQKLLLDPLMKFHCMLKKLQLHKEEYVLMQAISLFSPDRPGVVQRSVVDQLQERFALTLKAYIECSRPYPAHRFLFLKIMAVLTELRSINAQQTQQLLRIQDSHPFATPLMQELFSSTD
Experimental: as §1, §2, §3, §4

Row | activity on chimeric hRARβ construct (hRARβ) | activity on chimeric hRXRα construct (hRXRα) | activity on chimeric hTRβ construct (hTRβ) | activity on chimeric hVDR construct (hVDR) | activity on chimeric mCAR construct (mCAR) | activity on chimeric mERR3 construct (mERR3) | activity on chimeric mPXR construct (mPXR) | Structure (SMILES)
1 | No activity | No activity | No activity | No activity | No activity | No activity | No activity | COC(=O)/C=C/c1cccc(N(Cc2ccc(-c3ccc(N(C)C)cc3)cc2)C(=O)C2CCCCC2)c1 [fexaramine]
2 | No activity | No activity | No activity | No activity | No activity | No activity | No activity | COC(=O)/C=C/c1cccc(N(Cc2ccc(/C=C/c3ccccc3)cc2)C(=O)C2CCCCC2)c1 [fexarene]
3 | No activity | No activity | No activity | No activity | No activity | No activity | No activity | COC(=O)/C=C/c1cccc(N(Cc2ccc(-c3ccc4c(c3)OCO4)cc2)C(=O)C2CCCCC2)c1 [fexarine]
